Six compounds from patent publication US8877949B2, “Furo[3,2-g]chromene compounds and uses thereof” (Shenyang Pharmaceutical University, priority 2010, dated 2014) can be followed below.

The test system of assay [1] is uteri. The assay is described as follows: Uterotrophic/anti-uterotrophic assay in juvenile rats (4 days). The class given is in vivo, rat. The settings on record: immature female Sprague-Dawley rats, i.p., dose not stated, n = 2. As to the method: The estrogen and anti-estrogen properties of the compound can be tested in the uterotrophic assay (4 days) in juvenile rats. Immature rats (Sprague-Dawley rats) (female, 18 days old) were divided into 6 test groups. All these animals were i.p. injected with 10 μg of the compound, 100 μg of the compound per day, (100 μg of the compound and 1 μg 176 estradiol), so as to investigate anti-estrogens; and treated with 1 μg of 176 estradiol, wherein 50% DMSO/50% saline was used as injection media. These animals were sacrificed by CO2 asphyxiation on Day 4. Their uteri were extracted, and excessive fats and all liquid were removed. Then the wet weight of the uteri was measured. A part of one corner of the uterus was separated and analyzed histologically. The rest part was used to isolate whole RNA, so as to evaluate the expression of complement component 3 gene.

Assay [2] deals with LDL cell-mediated oxidation. Briefly: Inhibition of LDL oxidation, antioxidant activity (TBARS). Format: cell-based, Swine. The settings on record: Sus scrofa; compound 5 μM, 12.5 μg/mL LDL, 37° C., 4 hours; n = 2; read-out: Oxidation inhibition rate. The text has this:
Swine aortas were obtained from a slaughterhouse, washed, and then transferred into cold PBS. Epithelial cells were collected from the aortas. Particularly, in order to collect the epithelial cells, intercostal blood vessel of the aorta was knotted, and one end of the aorta was clamped with a forceps. Fresh 0.2% collagenase (Sigma Type I) which had been filtered for sterilization was placed into the blood vessel, and another end of the blood vessel was clamped with a forceps so as to form a closed system. The aortas were cultured at 37° C. for 15-20 min, then collagenase solution was collected and centrifuged for 5 min. The resultant precipitate was resuspended in 7 mL epithelial cell medium (i.e. a DMEM/Ham'S F12 medium without phenolsulfonphthalein but supplemented with carbon stripped FBS (5%)), then seeded in a 100 mm dish and cultured at 37° C., 5% CO2. Twenty minutes later, the cells were rinsed with PBS, and a fresh medium was added. The above process was repeated for 24 hours. After about one week, the cells were confluent. Usually, these epithelial cells were fed twice per week, and seeded with a ratio of 1:7 after the action of trypsin during confluence. In the case that the compound (5 μM) to be evaluated existed, 12.5 μg/mL LDL cell-mediated oxidation was carried out at 37° C. for 4 hours. The result was expressed as the percentage of oxidation inhibition, which was determined by analyzing free aldehyde by the TBARS (Thiobarbituric acid reactive substances) method.

For assay [3], the system named is uteri. Briefly: 6 weeks spayed rats, protection of bone and heart: uterine weight. Format: in vivo, rat. The following applies: spayed female Sprague-Dawley CD rats, 6 weeks treatment; n = 2. As to the method:
One day after a Taconic Farm surgery, spayed or pseudo-spayed female Sprague-Dawley CD rats (weighted 240-275 g) were obtained. These animals were fed with food and sufficient water, 3 or 4 rats/cage, in a 12/12 (light/dark) cycle. After one day, all items of investigative treatments were started to these animals. The animals were administered 7 days/week following the instruction, continuously for 6 weeks. In each investigation, one group of rats that were not treated, comparably aged, and subjected to pseudo-surgeries was used as an untreated and estrogen-sufficient control group.
All treatments were conducted with specified concentrations in physiological saline solution containing 1% Tween 80, so that the amount of the treatment was 0.1 mL/100 g body weight. Then 176 estradiol was dissolved in corn oil (20 μg/mL), and administered subcutaneously to rats, 0.1 mL/rat. The result was measured according to the average body weight of each group, and the animals were dosed once […].
Five weeks after the beginning of the treatment and one week before the end of the treatment, the bone mineral density (BMD) of each rat was evaluated. The total densities and trabecular densities of the proximal ends of tibias in the anaesthetized rats were evaluated using XCT-960M (pQCT; Stratec Medizintechik, Pforzheim, Germany). The measuring procedure is shown as follows: 15 minutes before scanning, each rat was anaesthetized by intraperitoneal injection of 45 mg/kg ketamine, 8.5 mg/kg xylazine, and 1.5 mg/kg acepromazine.
The right hindlimb was drawn over the polycarbonate test tube with a diameter of 25 mm, and tied up on the acrylic acid scaffold, so that the anklebone was situated as a right angle and the knee joint was kept horizontally. The polycarbonate test tube was fixed on the sliding platform, so as to be orthogonal with the aperture of pQCTR. The platform was adjusted, so that the distal end of femur and the proximal end of tibia were within the scanning zone. The plane scan image was set as an image with a length of 10 mm and a linear resolution of 0.2 mm.
Soft tissues were eliminated automatically using iterative algorithm. The density (total density) of the remaining bone was shown in a unit of mg/cm^3. In a concentric spiral separator, 55% of the external surface of the bone was peeled off. The density (i.e. trabecular density) of the remaining bone was shown in a unit of mg/cm^3. One week after BMD evaluation, the rats were sacrificed by CO2 asphyxiation. Blood was collected so as to measure cholesterol. Uteri were extracted and weighted. Total cholesterol was measured by Boehringer-Mannheim Hitachi 911 clinic analyzer utilizing a cholesterol/HP kit. A statistical comparison was carried out by way of one-way ANOVA of Dunnet's test.

With `O=C(c1ccc(OCC(=O)N2CCOCC2)cc1)c1oc2cc3c(cc2c1-c1ccc(O)cc1)CCCO3` [2-[4-(morpholine-2-oxo-ethoxy)benzoyl]-3-(4-hydroxyphenyl)-6,7-dihydrogen-5H-furo[3,2-g]chromene], the “percentage of weight gain of uteri” value in the assay with uteri [1] stood at 9.8%; with uteri [3], 6.2%. The inhibition at 5 µM in assay [2] worked out at 12.4%.

On to `CCN(CC)CCOc1ccc(C(=O)c2oc3cc4c(cc3c2-c2ccc(O)cc2)CCCO4)cc1` [Example 56, 2-[4-(diethylaminoethoxy)benzoyl]-3-(4-hydroxyphenyl)-6,7-dihydrogen-5H-furo[3,2-g]chromene], for which the “percentage of weight gain of uteri” value in the assay on uteri [1] amounted to 12.2%; in the assay with uteri [3] it was 15.1%. In addition, the inhibition at 5 µM in assay [2] is 5.1%.

Regarding `CN(C)CCOc1ccc(C(=O)c2oc3cc4c(cc3c2-c2ccc(O)cc2)CCCO4)cc1` [Example 58, 2-[4-(dimethylaminoethoxy)benzoyl]-3-(4-hydroxyphenyl)-6,7-dihydrogen-5H-furo[3,2-g]chromene], the “percentage of weight gain of uteri” value in the assay on uteri [1] came out at 0.6%; in the assay with uteri [3], 3.2%. Further, in assay [2], the inhibition at 5 µM came out at 6.8%.

Regarding `O=C(c1ccc(OCC(=O)N2CCCCC2)cc1)c1oc2cc3c(cc2c1-c1ccc(O)cc1)CCCO3` [Example 60, 2-[4-(piperidine-2-oxo-ethoxy)benzoyl]-3-(4-hydroxyphenyl)-6,7-dihydrogen-5H-furo[3,2-g]chromene], the “percentage of weight gain of uteri” value in the assay with uteri [1] was 8.7%; with uteri [3], 12.4%. Besides, the inhibition at 5 µM in assay [2] is 22.6%.

As to `CCN(CC)C(=O)COc1ccc(C(=O)c2oc3cc4c(cc3c2-c2ccc(O)cc2)CCCO4)cc1` [Example 62, 2-[4-(diethylamino-2-oxo-ethoxy)benzoyl]-3-(4-hydroxyphenyl)-6,7-dihydrogen-5H-furo[3,2-g]chromene], the figures for the “percentage of weight gain of uteri” value in the assay with uteri [1] and with uteri [3] were 38.8% and 23.9%, respectively. Besides, the inhibition at 5 µM in assay [2] was determined as 36.8%.

As for `CN(C)C(=O)COc1ccc(C(=O)c2oc3cc4c(cc3c2-c2ccc(O)cc2)CCCO4)cc1` [Example 64, 2-[4-(dimethylamino-2-oxo-ethoxy)benzoyl]-3-(4-hydroxyphenyl)-6,7-dihydrogen-5H-furo[3,2-g]chromene], the “percentage of weight gain of uteri” value with uteri [1] was determined as 26.2%; with uteri [3] it was 35.5%. In addition, in assay [2], the inhibition at 5 µM turned out to be 44.9%.
